Source: patent US12221448B2, “Selective PI3Kδ inhibitor and use thereof” (TARAPEUTICS SCIENCE INC., priority 2018, dated 2025)

Tests used:
PI3Kδ = target: T1, PI3Kδ (Homo sapiens, UniProt O00329); assay: In vitro enzyme activity (ADP-Glo) against PI3Kδ; format: biochemical; settings: Table 2; ATP 50 μM, PIP2:PS 50 μM
T1 construct: purchased Invitrogen (US)
Procedure: (§1) In vitro enzyme activity experiments were performed to determine the IC50 values of the compounds against PI3K family type I kinases (PI3Kα, PI3Kβ, PI3Kγ, PI3Kδ) and type II kinases (PIK3C2A, PIK3C2B). Protein kinases PI3Kα, PI3Kγ, PI3Kδ, PIK3C2A, and PIK3C2B were all purchased from Invitrogen (US); protein kinase PI3Kβ was purchased from sigma (US); the three substrates PIP2: PS, PI and PI: PS were purchased from Invitrogen (US).
(§2) Protein kinases diluted to a certain concentration, i.e., PI3Kα 5.4 μL (with a final concentration of 0.16 ng/μL), PI3Kβ 5.4 μL (with a final concentration of 6 ng/μL), PI3Kδ 5.4 μL (with a final concentration of 1 ng/μL), PI3Kγ 5.4 μL (with a final concentration of 5 ng/μL), PIK3C2A 5.4 μL (with a final concentration of 5 ng/μL), and PIK3C2B 5.4 μL (with a final concentration of 10 ng/μL) were respectively reacted with 1 μL of the serially diluted drug compounds for 1 hour at room temperature (final drug concentrations were 10 μM, 1 μM, 0.3 μM, 0.1 μM, 0.03 μM, 0.01 μM, 0.003 μM, and 0.001 μM, respectively).
(§3) To each reaction tube of the above PI3K family type I kinases, 6 μL of a mixture of ATP (Promega, US) and substrate PIP2:PS (final concentrations of ATP in the reaction systems of kinases PI3Kα, and PI3Kβ were 10 μM, and final concentrations of ATP in the reaction systems of kinases PI3Kδ, and PI3Kγ were 50 μM, and final concentrations of the substrate PIP2:PS were all 50 μM) was added, and reacted at 37° C. for 1 hour. The reaction buffer was 50 mM Hepes (pH 7.5) (Promega, USA), 3 mM MgCl2, 1 mM EGTA (Promega, US), 100 mM NaCl, 0.03% CHAPS (Promega, US).
(§4) 5 μL of kinase solution after reaction was placed in a 384-well plate (Corning, US), and 5 μL of ADP-Glo™ reagent (Promega, US) was added thereto and reacted at room temperature for 40 minutes to stop the kinase reaction and exhaust the remaining ATP; 10 μL of kinase detection reagent was added to convert ADP into ATP, and coupled luciferase/luciferin reaction was utilized to detect the newly synthesized ATP. Envision was utilized for readout and plotting, and Graphpad IC50 value was calculated.

PI3Kβ = target: T2, PI3Kβ (Homo sapiens, UniProt P42338); assay: In vitro enzyme activity (ADP-Glo) against PI3Kβ; format: biochemical; settings: Table 2; ATP 10 μM, PIP2:PS 50 μM; read-out: IC50 against PI3Kβ
T2 construct: purchased sigma (US)
Procedure: as §1, §2, §3, §4

PIK3C2B = target: T3, PIK3C2B (Homo sapiens, UniProt O00750); assay: In vitro enzyme activity (ADP-Glo) against PIK3C2B; format: biochemical; settings: Table 3; ATP 50 μM, substrate PI 100 μM; read-out: IC50 PI3KC2B
T3 construct: purchased Invitrogen (US)
T3 sequence (O00750 whole entry): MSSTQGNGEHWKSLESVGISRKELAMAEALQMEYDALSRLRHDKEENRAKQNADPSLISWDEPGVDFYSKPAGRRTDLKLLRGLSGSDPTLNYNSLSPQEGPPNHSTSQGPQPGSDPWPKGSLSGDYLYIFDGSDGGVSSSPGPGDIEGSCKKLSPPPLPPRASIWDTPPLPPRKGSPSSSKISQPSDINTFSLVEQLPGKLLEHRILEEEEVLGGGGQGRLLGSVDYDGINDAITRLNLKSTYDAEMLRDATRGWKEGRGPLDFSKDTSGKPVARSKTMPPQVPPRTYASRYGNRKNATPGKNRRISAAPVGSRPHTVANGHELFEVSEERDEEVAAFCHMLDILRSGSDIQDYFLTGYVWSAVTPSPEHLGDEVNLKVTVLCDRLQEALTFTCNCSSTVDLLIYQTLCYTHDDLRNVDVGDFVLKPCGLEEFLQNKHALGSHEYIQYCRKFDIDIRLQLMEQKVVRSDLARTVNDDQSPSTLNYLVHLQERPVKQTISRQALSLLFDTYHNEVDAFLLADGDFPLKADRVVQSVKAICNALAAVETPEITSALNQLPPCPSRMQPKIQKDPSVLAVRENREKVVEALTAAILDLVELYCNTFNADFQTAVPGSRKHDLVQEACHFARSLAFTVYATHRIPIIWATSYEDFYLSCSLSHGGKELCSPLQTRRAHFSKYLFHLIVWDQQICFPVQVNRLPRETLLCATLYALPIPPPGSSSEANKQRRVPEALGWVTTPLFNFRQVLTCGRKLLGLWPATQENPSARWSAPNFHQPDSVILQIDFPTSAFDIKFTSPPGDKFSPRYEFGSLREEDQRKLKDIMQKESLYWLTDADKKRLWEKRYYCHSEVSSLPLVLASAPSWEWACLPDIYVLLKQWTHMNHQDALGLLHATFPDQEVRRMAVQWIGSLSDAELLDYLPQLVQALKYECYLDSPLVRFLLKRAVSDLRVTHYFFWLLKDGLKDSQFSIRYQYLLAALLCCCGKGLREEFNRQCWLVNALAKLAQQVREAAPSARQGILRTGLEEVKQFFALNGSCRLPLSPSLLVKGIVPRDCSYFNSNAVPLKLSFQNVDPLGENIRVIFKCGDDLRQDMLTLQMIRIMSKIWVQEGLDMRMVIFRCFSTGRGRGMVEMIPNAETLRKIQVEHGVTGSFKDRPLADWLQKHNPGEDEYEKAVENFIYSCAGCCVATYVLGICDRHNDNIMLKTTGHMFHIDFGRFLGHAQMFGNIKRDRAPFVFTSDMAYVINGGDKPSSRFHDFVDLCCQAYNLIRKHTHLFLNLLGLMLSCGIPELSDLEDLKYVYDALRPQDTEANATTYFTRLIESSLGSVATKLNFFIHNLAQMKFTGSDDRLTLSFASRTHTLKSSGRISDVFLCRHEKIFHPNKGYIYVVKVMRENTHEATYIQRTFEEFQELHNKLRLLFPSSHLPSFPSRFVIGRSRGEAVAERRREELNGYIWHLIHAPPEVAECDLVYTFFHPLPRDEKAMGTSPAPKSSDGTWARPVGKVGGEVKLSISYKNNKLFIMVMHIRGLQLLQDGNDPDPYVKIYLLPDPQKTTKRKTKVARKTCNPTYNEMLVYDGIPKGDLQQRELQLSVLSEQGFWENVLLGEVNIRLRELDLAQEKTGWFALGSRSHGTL
Procedure: as §1, with “(US). […]” for “(US).”
as §4

[1] = system: rat model of adjuvant arthritis; assay: Efficacy in rat model of rheumatoid arthritis (adjuvant arthritis); format: in vivo, Sprague-Dawley (SD) rats; settings: 25 mg/kg/day, oral gavage, once a day
Procedure: In this example, the experimental results of Compound 9 were tested in a rat model of adjuvant arthritis.
(1) Sprague-Dawley (SD) rats, female, weighing 180 g±20 g, were purchased from Beijing Vital River Laboratory Animal Technology Co., Ltd. and maintained in an SPL laboratory. Drinking water and litter were sterilized by autoclaving, and all operations related to the rats were performed under sterile conditions.
(2) In the vehicle group and the treatment group, 10.0 mg/ml CFA (complete Freund's adjuvant, purchased from Sigma, US) was mixed thoroughly, and 0.1 ml of the CFA was injected intracutaneously into the right rear vola pedis of each rat on day 0 to induce inflammation; the normal group was injected with saline in the same way.
(3) Body weight and paw swelling were measured every 3 or 4 days after modeling. […]
(4) The body weight and paw swelling were measured every two days after administration, and the paw swelling was measured with a paw swelling meter. […] After the inflammation, the volume of left rear foot was measured to obtain the swelling degree of the secondary paw (Δm1=|paw volume after injection−paw volume before injection|).

PI3Kγ = target: T4, PI3Kγ (Homo sapiens, UniProt P48736); assay: In vitro enzyme activity (ADP-Glo) against PI3Kγ; format: biochemical; settings: Table 2; ATP 50 μM, PIP2:PS 50 μM; read-out: IC50 against PI3Kγ
T4 construct: purchased Invitrogen (US)
T4 sequence (P48736 whole entry): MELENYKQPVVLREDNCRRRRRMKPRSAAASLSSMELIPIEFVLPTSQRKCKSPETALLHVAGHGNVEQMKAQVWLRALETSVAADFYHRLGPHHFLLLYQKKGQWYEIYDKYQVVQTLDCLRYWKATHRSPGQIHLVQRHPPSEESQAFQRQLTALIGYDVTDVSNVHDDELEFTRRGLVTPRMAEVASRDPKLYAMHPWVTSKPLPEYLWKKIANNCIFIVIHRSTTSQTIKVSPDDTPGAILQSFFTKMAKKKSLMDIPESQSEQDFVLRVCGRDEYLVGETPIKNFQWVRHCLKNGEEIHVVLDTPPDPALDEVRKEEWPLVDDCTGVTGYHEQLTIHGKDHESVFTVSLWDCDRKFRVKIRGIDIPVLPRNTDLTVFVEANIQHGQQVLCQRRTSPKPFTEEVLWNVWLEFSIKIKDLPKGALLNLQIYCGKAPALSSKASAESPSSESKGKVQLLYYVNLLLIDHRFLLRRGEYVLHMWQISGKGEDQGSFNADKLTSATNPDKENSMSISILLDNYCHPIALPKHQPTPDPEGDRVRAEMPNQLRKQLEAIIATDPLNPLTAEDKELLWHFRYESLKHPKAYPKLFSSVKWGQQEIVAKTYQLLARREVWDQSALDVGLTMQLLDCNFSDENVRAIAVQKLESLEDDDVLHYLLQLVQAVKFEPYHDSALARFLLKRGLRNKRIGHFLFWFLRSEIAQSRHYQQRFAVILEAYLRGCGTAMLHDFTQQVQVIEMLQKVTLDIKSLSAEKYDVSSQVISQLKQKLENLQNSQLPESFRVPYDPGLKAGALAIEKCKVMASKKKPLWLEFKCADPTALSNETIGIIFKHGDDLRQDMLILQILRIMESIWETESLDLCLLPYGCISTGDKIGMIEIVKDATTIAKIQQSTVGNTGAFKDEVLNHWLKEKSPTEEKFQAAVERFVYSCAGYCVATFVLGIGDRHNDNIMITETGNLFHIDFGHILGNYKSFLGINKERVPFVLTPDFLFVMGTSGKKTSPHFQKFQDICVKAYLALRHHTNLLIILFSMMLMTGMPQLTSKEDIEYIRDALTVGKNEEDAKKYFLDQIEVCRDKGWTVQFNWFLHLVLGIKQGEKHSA
Procedure: as §1, §2, §3, §4

PIK3C2A = target: T5, PIK3C2A (Homo sapiens, UniProt O00443); assay: In vitro enzyme activity (ADP-Glo) against PIK3C2A; format: biochemical; settings: Table 3; ATP 50 μM, substrate PI 100 μM; read-out: IC50 PI3KC2A
T5 construct: purchased Invitrogen (US)
T5 sequence (O00443 whole entry): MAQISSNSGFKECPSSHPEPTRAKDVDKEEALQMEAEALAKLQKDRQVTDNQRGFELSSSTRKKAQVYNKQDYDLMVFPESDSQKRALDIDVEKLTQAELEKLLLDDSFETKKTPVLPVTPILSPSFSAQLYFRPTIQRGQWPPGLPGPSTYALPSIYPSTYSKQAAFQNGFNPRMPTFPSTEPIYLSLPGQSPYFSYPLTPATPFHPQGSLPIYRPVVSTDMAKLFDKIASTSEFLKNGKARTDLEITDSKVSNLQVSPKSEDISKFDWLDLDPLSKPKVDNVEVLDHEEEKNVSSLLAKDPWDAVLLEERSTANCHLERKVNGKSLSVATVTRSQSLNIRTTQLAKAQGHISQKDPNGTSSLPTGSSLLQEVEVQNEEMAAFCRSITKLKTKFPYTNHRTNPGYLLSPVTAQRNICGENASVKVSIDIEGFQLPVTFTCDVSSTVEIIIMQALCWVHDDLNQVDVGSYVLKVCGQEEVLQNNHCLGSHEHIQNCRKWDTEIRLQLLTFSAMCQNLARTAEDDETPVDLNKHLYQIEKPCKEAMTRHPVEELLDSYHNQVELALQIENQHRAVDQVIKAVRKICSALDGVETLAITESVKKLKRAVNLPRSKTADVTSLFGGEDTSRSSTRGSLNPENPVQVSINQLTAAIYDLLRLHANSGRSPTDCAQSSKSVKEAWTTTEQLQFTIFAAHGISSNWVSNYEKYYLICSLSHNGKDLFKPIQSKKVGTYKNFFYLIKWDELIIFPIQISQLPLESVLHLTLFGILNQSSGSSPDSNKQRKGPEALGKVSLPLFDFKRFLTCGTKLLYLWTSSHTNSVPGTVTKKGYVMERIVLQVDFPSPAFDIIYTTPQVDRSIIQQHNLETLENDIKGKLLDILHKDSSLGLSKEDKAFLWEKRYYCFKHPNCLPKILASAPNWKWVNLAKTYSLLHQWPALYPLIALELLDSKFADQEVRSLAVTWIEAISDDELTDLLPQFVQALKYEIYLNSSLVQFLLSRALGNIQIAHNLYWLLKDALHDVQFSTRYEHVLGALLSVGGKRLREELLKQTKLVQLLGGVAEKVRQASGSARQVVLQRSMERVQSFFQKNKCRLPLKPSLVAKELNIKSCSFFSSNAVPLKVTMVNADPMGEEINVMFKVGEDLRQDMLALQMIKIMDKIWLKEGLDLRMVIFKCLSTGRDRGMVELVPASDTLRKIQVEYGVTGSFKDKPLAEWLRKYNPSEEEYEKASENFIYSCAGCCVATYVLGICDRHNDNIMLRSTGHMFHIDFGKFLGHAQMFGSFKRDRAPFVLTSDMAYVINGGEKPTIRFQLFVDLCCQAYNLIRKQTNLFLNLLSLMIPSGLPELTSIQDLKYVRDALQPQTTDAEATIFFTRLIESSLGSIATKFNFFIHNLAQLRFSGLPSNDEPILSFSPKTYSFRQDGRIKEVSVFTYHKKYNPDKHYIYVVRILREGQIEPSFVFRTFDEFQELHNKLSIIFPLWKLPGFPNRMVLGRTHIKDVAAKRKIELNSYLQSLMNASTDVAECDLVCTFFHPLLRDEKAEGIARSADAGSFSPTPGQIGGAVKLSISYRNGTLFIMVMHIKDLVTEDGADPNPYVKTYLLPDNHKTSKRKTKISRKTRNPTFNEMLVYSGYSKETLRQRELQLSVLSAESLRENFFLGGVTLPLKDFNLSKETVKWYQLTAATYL
Procedure: as §1, with “(US). […]” for “(US).”
as §4

PI3Kα = target: T6, PI3Kα (Homo sapiens, UniProt P42336); assay: In vitro enzyme activity (ADP-Glo) against PI3Kα; format: biochemical; settings: Table 2; ATP 10 μM, PIP2:PS 50 μM
T6 construct: purchased Invitrogen (US)
Procedure: as §1, §2, §3, §4

IC50 (PI3Kδ): 0.0173 µM | IC50 (PI3Kβ): 1.16 µM | IC50 (PIK3C2B): 9960 nM | IC50 (PI3Kγ): 0.685 µM | IC50 (PIK3C2A): > 10000 nM | IC50 (PI3Kα): 3.35 µM
Structure (SMILES): CCC(c1nc2cccc(F)c2c(=O)n1C1CC1)n1nc(-c2ccc(OC)c(F)c2)c2c(N)ncnc21 (centres unmarked) [Compound 9, 2-(1-(4-amino-3-(3-fluoro-4-methoxyphenyl)-1H-pyrazolo [3,4-d]pyrimidin-1-yl)propyl)-3-cyclopropyl-5-fluoroquinazolin-4(3H)-one]
effect on the body weight of rats ([1]; 14 days, FIG. 1a): no significant effect | paw swelling as compared with the vehicle group ([1]; after 14 days of administration, FIG. 1b): significantly reduced
